Assay results taken from patent publication US8017828B2, “Utilization of rare sugars in plant or microorganism” (Shikoku Research Institute Incorporated, priority 2004, dated 2011).

What was measured:
[1] = tested on: tomato plant (variety: “House Momotaro”); test: Germination of D-psicose treated tomato seeds on agar without Fusarium oxysporum; format: in vivo; details: no Fusarium oxysporum; D-psicose seed 0.05%, medium non
Experimental: To be more specific, seeds of a tomato plant (variety: “House Momotaro”) were subjected to an immersion treatment by immersing them in a D-psicose solution at a concentration of from 0.01% (w/v) to 0.1% (w/v) for 15 minutes while stirring slowly, followed by air-drying on sterile gauze, and then used as treated seeds. […] At this time, test plots in which D-psicose was added to the agar medium at a concentration of from 0.01% (w/v) to 0.1% (w/v) were prepared. Then, the dishes were placed at 23° C. under the dark condition for 7 days to 10 days, and observation was carried out with regard to the elongation of shoot, the elongation of root, the shoot development rate, the infection state in root and the like.

[2] = tested on: PBZ1, chitinase gene (PCG3), PAL gene; test: Northern blot of genes related to resistance in rice after D-psicose treatment; format: in vivo
Experimental: A seedling of a rice plant (variety: Nihonbare, see FIG. 10, the middle of the photograph, the white bar: 5 mm) at day 5 after sowing was used for an experiment. The rice seedling was raised by hydroponic culture in a pot using Kimura B solution. The Kimura B solution was supplemented with D-psicose at each concentration. While the solution was replaced with the same solution every 5 days, cultivation was carried out for 10 days. Thereafter, the seedling was transplanted to a pot filled with soil, and then, cultivation was carried out with natural light in a glass chamber for 7 days. Then, total RNA was extracted and a Northern blot analysis was carried out.

[3] = 0.5 mM for 10 days, 1 week after transplanting

For O=C(CO)[C@H](O)[C@H](O)[C@H](O)CO [D-psicose], the Root length [1] was 7.4 cm, the Shoot length [1] was 6.7 cm and the “expression of genes related to rice disease resistance in leaves” value ([2]; 0.5 mM 10 days, then one week in soil without D-psicose) was “induction”. The “induction of PBZ1” value [2, 3] was “strongly observed”, the “induction of chitinase gene (PCG3)” value [2, 3] was “strongly observed” and the “effect on PAL gene” value ([2]; constantly expressed gene) was “no effect”. The “expression of PBZ1 and chitinase gene (PCG3)” value ([2]; treated plots of from 0.0005 to 0.1 mM) was “not expressed”.
